Source: patent publication US6362134B1, “Herbicidal 1,2,4,6-thiatriazines” (Syngenta Investment Corporation, priority 1996, dated 2002)

Tests used:
[1] = Stability of the isolated compound when left to stand; assay type: physicochemical; settings: isolated product
Method: 4.09 g (0.02 mol) of 1,3,5-trichlorothiatriazine are stirred as a suspension in 50 ml of carbon tetrachloride at −25° C., and a solution of 0.70 g (0.022 mol) of methanol in a little carbon tetrachloride is added dropwise. During this operation, the trichlorothiatriazine dissolves apart from a little insoluble product. The mixture is then warmed to 0° C. and filtered and the filtrate is concentrated on a rotary evaporator at a maximum of 50° C. 3.25 g of the desired product, which, according to the ^13C-NMR spectrum and thin layer chromatogram (silica gel; eluting agent ethyl acetate/hexane 1/3), contains practically no further impurities, are obtained as the residue.

Avena = experiment: Herbicidal action before emergence of the plants (pre-emergent action); assay type: in vivo; settings: 2000 g of active substance/ha, sprayed immediately after sowing, evaluated after 3 weeks, ratings scale of nine levels (1=complete damage, 9=no action)
Method: (§1) Monocotyledon and dicotyledon test plants are sown in standard soil in plastic pots. Immediately after sowing, the test substances are sprayed on (500 l of water/ha) in an aqueous suspension prepared from a 25% wettable powder (Example F3, b)), corresponding to a dosage of 2000 g of active substance/ha. The test plants are then grown under optimum conditions in a greenhouse. After a test period of 3 weeks, the test is evaluated with a ratings scale of nine levels (1=complete damage, 9=no action). Ratings of 1 to 4 (in particular 1 to 3) mean a good to very good herbicidal action.
(§2) Test plants: Avena, Setaria, Sinapis, Stellaria

Setaria = experiment: as above; assay type: in vivo; parameters: key: 1=complete damage; 9=no action; Ratings of 1 to 4 (in particular 1 to 3) mean a good to very good herbicidal action; settings: 2000 g of active substance/ha, sprayed immediately after sowing, evaluated after 3 weeks, ratings scale of nine levels
Method: as §1, §2

Sinapis [2] = experiment: as above; assay type: in vivo; parameters: key: 1=complete damage; 9=no action; Ratings of 1 to 4 (in particular 1 to 3) mean a good to very good herbicidal action; settings: 2000 g of active substance/ha, sprayed immediately after sowing, evaluated after 3 weeks, ratings scale of nine levels
Method: as §1, §2

Stellaria [3] = experiment: as above; assay type: in vivo; parameters: key: 1=complete damage; 9=no action; Ratings of 1 to 4 (in particular 1 to 3) mean a good to very good herbicidal action; settings: 2000 g of active substance/ha, sprayed immediately after sowing, evaluated after 3 weeks, ratings scale of nine levels
Method: as §1, §2

Sinapis [4] = experiment: Post-emergent herbicidal action (contact herbicide); assay type: in vivo; parameters: key: 1=complete damage; 9=no action; Ratings of 1 to 4 (in particular 1 to 3) mean a good to very good herbicidal action; settings: 2000 g of active substance/ha, sprayed in the 4- to 6-leaf stage, evaluated after about 18 days, ratings scale 1-9
Method: (§3) Monocotyledon and dicotyledon test plants are grown in plastic pots with standard soil in a greenhouse and, in the 4- to 6-leaf stage, are sprayed with an aqueous suspension of the test substances of the formula 1, prepared from a 25% wettable power (Example F3, b)), corresponding to a dosage of 2000 g of active substance/ha (500 l of water/ha). The test plants are then grown further in the greenhouse under optimum conditions. After a test period of about 18 days, the test is evaluated with a ratings scale of 9 levels (1=complete damage, 9=no action). Ratings of 1 to 4 (in particular 1 to 3) mean a good to very good herbicidal action.
(§4) Test plants: Sinapis, Stellaria

Stellaria [5] = experiment: as above; assay type: in vivo; parameters: key: 1=complete damage; 9=no action; Ratings of 1 to 4 (in particular 1 to 3) mean a good to very good herbicidal action; settings: 2000 g of active substance/ha, sprayed in the 4- to 6-leaf stage, evaluated after about 18 days, ratings scale 1-9
Method: as §3, §4

melting point [°C] | Compound | stability when left to stand [1] | Pre-emergent action, rating, Avena (Avena) | Pre-emergent action, rating, Setaria (Setaria) | Pre-emergent action, rating, Sinapis (Sinapis [2]) | Pre-emergent action, rating, Stellaria (Stellaria [3]) | Post-emergent action, rating, Sinapis (Sinapis [4]) | Post-emergent action, rating, Stellaria (Stellaria [5])
184 to 185 | CCCN(CCC)S1=NC(N)=NC(Oc2cc(F)ccc2F)=N1 (stereo not shown) [Example H17, 3-amino-1-dipropylamino-5-(2′,5′-difluorophenoxy)thiatriazine] | – | – | – | – | – | – | –
163 to 164 | CC(C)OS1=NC(N)=NC(Oc2cc(F)ccc2F)=N1 (stereo not shown) [Example H14, 3-amino-1-isopropoxy-5-(2′,5′-difluorophenoxy)thiatriazine] | – | – | – | – | – | – | –
– | COS1=NC(Cl)=NC(Cl)=N1 (stereo not shown) [Example H3, 1-methoxy-3,5-dichlorothiatriazine] | unstable and decomposes within a few hours when left to stand | – | – | – | – | – | –
– | NC1=NC(Oc2c(F)c(F)c(F)c(F)c2F)=NS(N2CCc3ccccc3CC2)=N1 (stereo not shown) [6.200] | – | 4 | 1 | 1 | 1 | 2 | 2
– | CC1CN(S2=NC(N)=NC(Oc3c(F)c(F)c(F)c(F)c3F)=N2)CCC(C)(C)C1 (single isomer, unassigned) [6.93] | – | 2 | 1 | 1 | 1 | 1 | 1
– | CN(Cc1ccccc1)S1=NC(N)=NC(Oc2c(F)c(F)c(F)c(F)c2F)=N1 (stereo not shown) [6.192] | – | 2 | 1 | 1 | 1 | 2 | 4
– | NC1=NS(N2CCCCCC2)=NC(Oc2c(F)c(F)cc(F)c2F)=N1 (stereo not shown) [6.89] | – | 2 | 2 | 1 | 1 | 2 | 3
– | CC1CC(C)CC(OS2=NC(N)=NC(Oc3c(F)c(F)c(F)c(F)c3F)=N2)C1 (stereo not shown) [5.120] | – | 4 | 2 | 1 | 1 | 2 | 3
– | NC1=NS(N2CCCCCCCC2)=NC(Oc2c(F)c(F)cc(F)c2F)=N1 (stereo not shown) [6.302] | – | 3 | 2 | 1 | 1 | 2 | 3
– | CC1CC(OS2=NC(N)=NC(Oc3c(F)c(F)c(F)c(F)c3F)=N2)CC(C)(C)C1 (stereo not shown) [5.78] | – | 3 | 2 | 2 | 1 | 2 | 3
75 to 76 | COC1=NS(OC)=NC(Oc2cc(F)ccc2F)=N1 (stereo not shown) [Example H10, 1,3-dimethoxy-5-(2′,5′-di-fluorophenoxy)thiatriazine] | – | – | – | – | – | – | –
– | CN(Cc1ccc(Cl)nc1)S1=NC(N)=NC(Oc2c(F)c(F)c(F)c(F)c2F)=N1 (stereo not shown) [6.170] | – | 3 | 4 | 4 | 1 | 2 | 3
– | CC1(C)CC2CC(C)(CN2S2=NC(N)=NC(Oc3c(F)c(F)c(F)c(F)c3F)=N2)C1 (single isomer, unassigned) [6.153] | – | 4 | 3 | 1 | 1 | 1 | 2
– | CC1(C)CCC(OS2=NC(N)=NC(Oc3c(F)c(F)c(F)c(F)c3F)=N2)CC1 (stereo not shown) [5.52] | – | 4 | 2 | 1 | 1 | 2 | 2
– | CC1CCC(OS2=NC(N)=NC(Oc3c(F)c(F)c(F)c(F)c3F)=N2)CC1 (stereo not shown) [5.326] | – | 4 | 4 | 1 | 1 | 2 | 4
